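A five-concentration, 48-hour dose response in 96-well plates underlies each endpoint, interpolated linearly between surrounding concentrations. TGI is the concentration that stops growth completely.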
Tests used:
Test in all cases: inhibition of tumour cell growth, NCI panel, 48 h
[1] = tested on: OVCAR-4 ovarian
[2] = tested on: HCT-15 colon
[3] = tested on: KM12 colon
[4] = tested on: SNB-75 CNS
[5] = tested on: T-47D breast
[6] = tested on: UACC-257 melanoma
[7] = tested on: TK-10 renal
[8] = tested on: SK-MEL-5 melanoma
[9] = tested on: EKVX NSCLC
[10] = tested on: ACHN renal
[11] = tested on: OVCAR-5 ovarian
[12] = tested on: CCRF-CEM leukemia
[13] = tested on: DU-145 prostate
[14] = tested on: NCI-H460 lung
[15] = tested on: SK-OV-3 ovarian
[16] = tested on: MDA-MB-231 breast
[17] = tested on: HOP-92 NSCLC
[18] = tested on: NCI/ADR-RES ovarian
[19] = tested on: SNB-19 CNS
[20] = tested on: OVCAR-3 ovarian

Compound	TGI [1]	TGI [2]	TGI [3]	TGI [4]	TGI [5]	TGI [6]	TGI [7]	TGI [8]	TGI [9]	TGI [10]	TGI [11]	TGI [12]	TGI [13]	TGI [14]	TGI [15]	TGI [16]	TGI [17]	TGI [18]	TGI [19]	TGI [20]
N=C(N)SCc1ccc(N=C=S)cc1	27.4 µM	24.6 µM	27.6 µM	21.9 µM	34.9 µM	25.8 µM	28.1 µM	27.2 µM	35.5 µM	26.1 µM	27.6 µM	> 100 µM	29.5 µM	30.4 µM	31.1 µM	20.1 µM	24.2 µM	43 µM	26.7 µM	–
Cc1ccc(S(=O)(=O)N2CCCSCCN(S(=O)(=O)c3ccc(C)cc3)CCCSCC2)cc1	> 100 µM	–	> 100 µM	> 100 µM	> 100 µM	> 100 µM	> 100 µM	> 100 µM	> 100 µM	> 100 µM	> 100 µM	–	> 100 µM	> 100 µM	> 100 µM	> 100 µM	> 100 µM	> 100 µM	> 100 µM	> 100 µM
COc1ccc(-c2nc3cc(C(F)(F)F)ccc3n2CC2CCCN3CCCCC23)cc1 (configuration not stated)	39.7 µM	29.1 µM	45.2 µM	28.8 µM	48.2 µM	26.7 µM	30.2 µM	27.5 µM	24.5 µM	29 µM	62.9 µM	31.4 µM	30.8 µM	29.2 µM	33.7 µM	27.7 µM	27.9 µM	27.1 µM	–	37.1 µM
O=c1c2c3c(sc2nc2n1N=C(c1ccc([N+](=O)[O-])cc1)CS2)CCCC3	> 100 µM	> 100 µM	> 100 µM	> 100 µM	> 100 µM	> 100 µM	> 100 µM	> 100 µM	> 100 µM	> 100 µM	> 100 µM	> 100 µM	> 100 µM	> 100 µM	> 100 µM	> 100 µM	> 100 µM	> 100 µM	–	> 100 µM
CC(=O)OC(=C(C#N)C#N)c1nccnc1C(C)=O	> 20 µM	> 20 µM	14 µM	18.6 µM	> 20 µM	> 20 µM	–	> 20 µM	> 20 µM	> 20 µM	> 20 µM	> 20 µM	> 20 µM	> 20 µM	> 20 µM	> 20 µM	> 20 µM	> 20 µM	> 20 µM	> 20 µM
Nc1[nH]c(=S)c2c(N)n[nH]c2c1C(=O)Nc1ccc(Cl)cc1	> 100 µM	> 100 µM	> 100 µM	> 100 µM	> 100 µM	> 100 µM	> 100 µM	> 100 µM	> 100 µM	–	> 100 µM	–	> 100 µM	> 100 µM	> 100 µM	> 100 µM	> 100 µM	> 100 µM	> 100 µM	> 100 µM
